Experimental data from PMC5654414, “In vitro and in vivo comparative and competitive activity-based protein profiling of GH29 α-L-fucosidases” (Chemical Science, 2015).

Assays:
[1] = molecular target: T1, FUCA1 (recombinant human GH29 α-L-fucosidase per table title) (Homo sapiens, UniProt P04066); test: In situ inhibition of FUCA1 in living fibroblasts; type: cell-based
T1 construct: endogenous in cells; host or cells: fibroblasts
T1 sequence (P04066 32-466): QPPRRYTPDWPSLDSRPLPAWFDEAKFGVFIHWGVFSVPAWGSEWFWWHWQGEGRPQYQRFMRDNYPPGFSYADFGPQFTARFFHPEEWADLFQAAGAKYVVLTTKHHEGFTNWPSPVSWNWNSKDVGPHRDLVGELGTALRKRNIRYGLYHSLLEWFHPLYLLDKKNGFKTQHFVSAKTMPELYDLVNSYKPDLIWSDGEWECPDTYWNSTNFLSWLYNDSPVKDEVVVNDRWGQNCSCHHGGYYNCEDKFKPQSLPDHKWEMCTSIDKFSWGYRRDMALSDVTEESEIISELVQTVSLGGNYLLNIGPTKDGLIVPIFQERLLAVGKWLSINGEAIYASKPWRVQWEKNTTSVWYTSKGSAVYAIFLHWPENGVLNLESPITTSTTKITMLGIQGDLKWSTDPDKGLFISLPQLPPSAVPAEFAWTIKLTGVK

[2] = molecular target: T2, recombinant human FUCA1 (human lysosomal α-L-fucosidase) (Homo sapiens, UniProt P04066); test: In vitro inhibition of FUCA1 activity, 4-methylumbelliferyl-α-L-fucopyranoside substrate, lysates of COS-7 cells over-expressing enzyme; type: biochemical
T2 construct: expressed in transfected cells; host or cells: COS-7
T2 sequence (P04066 32-466): T1 sequence (P04066 32-466)
Experimental: Having the cyclophellitol aziridine inhibitors and probes in hand, we determined their inhibitory potency towards the human lysosomal α-L-fucosidase, FUCA1.
The enzymatic activity of α-L-fucosidase was assayed at 37 °C by incubating with 1.5 mM 4-methylumbelliferyl-α-L-fucopyranoside as substrate in 150 mM McIlvaine buffer, pH 4.5, supplemented with 0.1% (w/v) BSA. […] The reaction was quenched by adding excess NaOH–glycine (pH 10.6), after which fluorescence was measured with a fluorimeter LS55 (Perkin Elmer) using λEX 366 nm and λEM 445 nm.

FUCA1 [3] = molecular target: T3, FUCA1 (Homo sapiens, UniProt P04066); test: ABP pulldown from Gaucher spleen lysate and LC-MS/MS identification; type: binding; set-up: lysates of spleens from a healthy human individual and a patient suffering from Gaucher disease; from tissue; host or cells: human spleen (normal subject and type 1 Gaucher patient); conditions: 10 μM probe, Gaucher spleen lysate
T3 sequence (P04066 32-466): T1 sequence (P04066 32-466)
Experimental: To further determine the specificity of the developed ABPs, we have analyzed the ABP-labeled proteins in a complex tissue homogenate. For this purpose, we incubated Gaucher spleen lysate with biotinylated ABP 3 or with DMSO only (control) or competitive ABP 3-labeling by first incubating with fluorescent ABP 1. Glycosylated proteins were then enriched via ConA, followed by affinity purification with streptavidin coated paramagnetic beads. The identity of biotinylated and ABP 3-labeled proteins was determined by on-bead digestion with trypsin, peptide analysis by LC-MS/MS and matching against the human UniProt database, using the Mascot search engine as previously reported.[14] […]
Gaucher spleen lysate (1 g) was cut with a sterile scalpel, mixed with 4 mL 25 mM potassium phosphate buffer (pH 6.5, supplemented with 0.1% (v/v) Triton X-100 and protease inhibitor cocktail (Roche)) and sonicated three times for 10 seconds at 100% strength and kept on ice. […] Lysate was then centrifuged for 10 min at 10 000 g, supernatant collected carefully, protein concentration determined and […] total protein was then incubated with either 0.1% (v/v) DMSO, ABP 1 or ABP 3, or firstly with 10 μM ABP 1 followed by 10 μM of ABP 3, each step taking 30 min at 37 °C, in a total volume of 1 mL McIlvaine buffer, pH 4.5. […]

α-L-fucosidase = molecular target: T4, α-L-fucosidase (Homo sapiens, UniProt P04066); test: Competitive ABPP in human spleen lysates (healthy and Gaucher), ABP 1 labeling; type: binding
T4 construct: lysates of spleens from a healthy human individual and a patient suffering from Gaucher disease; from tissue; host or cells: human spleen (normal subject and type 1 Gaucher patient)
T4 sequence (P04066 32-466): T1 sequence (P04066 32-466)
Description: Subsequently, we exposed lysates of spleens from a healthy human individual and a patient suffering from Gaucher disease to ABP 1. […] The labeled band from human Gaucher spleen lysate is considerably more intense than the corresponding band in healthy human spleen, reflecting elevated α-L-fucosidase activity in the former. […] As before, labeling with ABP 1 was suppressed after pre-treatment with either N-benzoyl aziridine 4 or L-fuconojirimycin 6. To further ascertain that […] labels mammalian GH29 retaining α-L-fucosidases we performed a number of control experiments (ESI Fig. S2a ^†). Compound 1 labeled both FUCA1 and FUCA2 that were overexpressed in COS cells. Treatment of murine spleen lysates with 1 yielded a result essentially as observed for healthy human tissue (ESI Fig. S2b ^†).
All pre-incubations and ABP labeling-reactions occurred for 30 min at 37 °C. Total lysates (50 μg), medium (500 μg) or purified protein preparations (5 μg) were labeled with 1 μM JJB256 1 or JJB244 2, dissolved in 150 mM McIlvaine buffer, pH 4.5, incubating for 30 min at 37 °C. […] Wet slab-gels were scanned on fluorescence using a Typhoon Variable Mode Imager (Amersham Biosciences) using λEX 488 nm and λEM 520 nm (band pass filter 40 nm) for green fluorescent JJB256 1 and λEX 532 nm and λEM 610 nM (band pass filter 30 nm) for red fluorescent JJB244 2 and JJB75.

[4] = test system: recombinant α-L-fucosidase from Bacteroides thetaiotaomicron gene 2970; test: Competitive ABPP in E. coli lysate overexpressing bacterial α-L-fucosidase, ABP 1 labeling; type: binding
Experimental: (§1) All pre-incubations and ABP labeling-reactions occurred for 30 min at 37 °C. Total lysates (50 μg), medium (500 μg) or purified protein preparations (5 μg) were labeled with 1 μM JJB256 1 or JJB244 2, dissolved in 150 mM McIlvaine buffer, pH 4.5, incubating for 30 min at 37 °C. For ABPP, protein preparations were pre-incubated with compounds 4 (100 μM), 6 (100 μM), 7–13 (1 or 5 mM, specified in the main text) prior to the addition of 100 nM fluorescent ABPs. Influence of pH on ABP labeling involved pre-incubation at pH 3–10 prior to addition of 100 nM ABP 1. Direct labeling of retaining β-glucosidases occurred at pH 5.0 in conjunction with 100 nM ABP JJB75. Samples were then denatured with 5× Laemmli buffer (50% (v/v) 1 M Tris–HCl, pH 6.8, 50% (v/v) 100% glycerol, 10% (w/v) DTT, 10% (w/v) SDS, 0.01% (w/v) bromophenol blue), boiled for 4 min at 100 °C, and separated by gel electrophoresis on 10% (w/v) SDS-PAGE gels running continuously at 90 V.[13],[14] Wet slab-gels were scanned on fluorescence using a Typhoon Variable Mode Imager (Amersham Biosciences) using λEX 488 nm and λEM 520 nm (band pass filter 40 nm) for green fluorescent JJB256 1 and λEX 532 nm and λEM 610 nM (band pass filter 30 nm) for red fluorescent JJB244 2 and JJB75.

FUCA1 [5] = molecular target: T3, FUCA1; test: Competitive ABPP on recombinant FUCA1 with ABP 1 labeling as readout; type: binding; set-up: expressed in transfected cells; host or cells: COS-7; conditions: competitive ABPP format
Experimental: as §1

SMILES: CC(=O)N1[C@@H]2[C@@H](C)[C@@H](O)[C@@H](O)[C@H](O)[C@@H]21 [compound 5]
- IC50 [1]: 0.0779 ± 0.0091 µM
- IC50 [2]: 0.0468 ± 0.0034 µM

SMILES: C[C@H]1[C@@H](O)[C@@H](O)[C@H](O)[C@H]2[C@@H]1N2C(=O)CCCCCCCN=[N+]=[N-] [compound 23]
- IC50 [1]: 0.0654 ± 0.0075 µM
- IC50 [2]: 0.0087 ± 0.0011 µM
- fold increase in enzyme inhibition ([2]; comparing 5 with 23): 5 fold

SMILES: COc1ccc(C2=[N+]3C(=C(CCCCc4cn(CCCCCCCC(=O)N5[C@@H]6[C@@H](C)[C@@H](O)[C@@H](O)[C@H](O)[C@@H]65)nn4)c4ccc(-c5ccc(OC)cc5)n4[B-]3(F)F)C=C2)cc1 [compound 2]
- IC50 [1]: 0.158 ± 0.022 µM
- IC50 [2]: 0.0087 ± 0.0012 µM

SMILES: C[C@H]1[C@@H](O)[C@@H](O)[C@H](O)[C@H]2[C@@H]1N2C(=O)CCCCCCCn1cc(CNC(=O)CCCCCNC(=O)CCCC[C@@H]2SC[C@@H]3NC(=O)N[C@@H]32)nn1 [compound 3]
- identification of FUCA1 after pull-down (FUCA1 [3]): one of the top identified proteins
- IC50 [2]: 0.0072 ± 0.0011 µM

SMILES: C[C@H]1[C@@H](O)[C@@H](O)[C@H](O)[C@H]2[C@@H]1N2C(=O)c1ccccc1 [compound 4]
- suppression of ABP 1 labeling after pre-treatment (α-L-fucosidase): suppressed
- IC50 [1]: 0.515 ± 0.0729 µM
- blocking of ABP 1 labeling of major 50 kD band ([4]; pre-incubation with 100 μM): blocked
- IC50 [2]: 0.372 ± 0.0212 µM
- fold less active ([2]; compared to 5): about eight-fold

SMILES: C[C@@H]1NC[C@@H](O)[C@H](O)[C@@H]1O.Cl [compound 6, 1-deoxy-L-fuconojirimycin, reference compound]
- suppression of ABP 1 labeling after pre-treatment (α-L-fucosidase): suppressed
- blocking of ABP 1 labeling of major 50 kD band ([4]; pre-incubation with 5 mM): blocked
- blocking of ABP 1 labeling of α-L-fucosidase (FUCA1 [5]): able to inhibit FUCA1
